Test [1] addresses ER in MCF-7 cells (Homo sapiens (Human), UniProt P03372). Put plainly: In-cell western (ICW) ER degradation assay in MCF-7 cells (Compounds A1-A70). Type of test: cell-based. As to conditions: MCF-7 cells, 16 hrs treatment; for DC50: ER degradation, 0.02 to 300 nM, read-out: MCF7 ICW DC50; for Dmax: MCF7, maximal ER degradation, read-out: MCF7 ICW Dmax (%). On the procedure:
(§1) ERa degradative activity of compounds can be assessed in MCF-7 and T47D Cells. MCF-7 and T47D cell are seeded and are subsequently treated with the compounds at certain concentrations (e.g., 0.02 to 300 nM). DMSO can be used as vehicle control. Cells are fixed and are blocked with Intercept (PBS) Blocking Buffer (e.g., Li—COR, Odyssey Blocking Buffer), and are stained with ER (e.g., 1:500, Cell signaling) primary antibody for overnight at cold room. Secondary Antibody (e.g., IRDye 800CW Goat anti-Rabbit IgG) and CellTag 700 Stain are added in Intercept (PBS) Blocking Buffer. Finally, cell plate is placed in incubator to dry. Image and signal are captured on Odyssey® DLx Imaging System.
(§2) Day 3: After 16 hrs of compounds treatment, cells were fixed by 4% PFA and permeabilized with elution buffer (0.1% Triton X-100 in 1% PBS Solution). Subsequently, cells were blocked with Intercept (PBS) Blocking Buffer (Li—COR, Odyssey Blocking Buffer), and were stained with ER (1:500, Cell signaling) primary antibody for overnight at cold room.
(§3) Day 4: Remove the buffer, add IRDye 800CW Goat anti-Rabbit IgG Secondary Antibody (1:2000) and CellTag 700 Stain (1:500) in Intercept (PBS) Blocking Buffer. Finally, cell plate is placed in incubator to dry. Image and signal were captured on Odyssey® DLx Imaging System.

Test [2] has as its target ER in T47D cells (Homo sapiens (Human), UniProt P03372). The test can be described thus: In-cell western (ICW) ER degradation assay in T47D cells (Compounds A1-A70). Type of test: cell-based. As to conditions: T47D cells, 16 hrs treatment; for DC50: ER degradation, 0.02 to 300 nM; for Dmax: maximal ER degradation, read-out: T47D ICW Dmax (%). On the procedure: as §1, §2, §3

Test [3] has as its target CRBN/DDB1 (Homo sapiens (Human), UniProt Q96SW2). In kind it is binding. As to conditions: His tagged CRBN+DDB-DLS7+CXU4, Cy5-labeled Thalidomide probe, one hour incubation; read-out: CRBN HTRF IC50. The protocol: The binding potency was determined using H-TRF assay technology (Perkin Elmer). Compounds were serially diluted in DMSO and 0.2 μL volume was transferred to white 384-well plate.
(TR-FRET usually uses a lanthanide donor and a delayed reading to cut background.)

Here are results for eleven compounds from US20260007681A1, “INDOLE DERIVATIVES AS ESTROGEN RECEPTOR DEGRADERS” (REGENTS OF THE UNIVERSITY OF MICHIGAN, priority 2022, published 2026).

Usually DC50 stands for the midpoint of the concentration-degradation curve. In general, Dmax refers to the largest share of the target that was removed. In general, IC50 refers to the concentration that inhibits the measured activity by half.

Where a name gives a salt, the structure may show the parent alone. Read-outs that look alike come from different tables or passages of the source. A value given as a limit tells only on which side of the number the result lay.

Sequence of ER in MCF-7 cells (P03372 whole entry): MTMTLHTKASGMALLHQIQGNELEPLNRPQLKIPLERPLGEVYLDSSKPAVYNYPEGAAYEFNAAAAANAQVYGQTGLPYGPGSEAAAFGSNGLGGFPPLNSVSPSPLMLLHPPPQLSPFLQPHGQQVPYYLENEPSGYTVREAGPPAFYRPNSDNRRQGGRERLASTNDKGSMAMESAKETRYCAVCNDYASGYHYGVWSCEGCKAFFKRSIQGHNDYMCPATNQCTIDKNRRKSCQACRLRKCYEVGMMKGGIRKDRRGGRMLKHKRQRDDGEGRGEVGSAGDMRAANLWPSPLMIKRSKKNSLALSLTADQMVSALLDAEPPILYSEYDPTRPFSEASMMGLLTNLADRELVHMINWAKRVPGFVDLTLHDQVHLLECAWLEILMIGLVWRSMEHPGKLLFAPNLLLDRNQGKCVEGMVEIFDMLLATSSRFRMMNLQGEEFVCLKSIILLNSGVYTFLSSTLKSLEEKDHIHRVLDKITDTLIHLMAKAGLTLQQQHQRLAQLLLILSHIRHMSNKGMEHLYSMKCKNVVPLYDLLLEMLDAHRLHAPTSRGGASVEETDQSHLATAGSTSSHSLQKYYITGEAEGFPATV
Sequence of ER in T47D cells (P03372 whole entry): as above
Sequence of CRBN/DDB1 (Q96SW2 whole entry): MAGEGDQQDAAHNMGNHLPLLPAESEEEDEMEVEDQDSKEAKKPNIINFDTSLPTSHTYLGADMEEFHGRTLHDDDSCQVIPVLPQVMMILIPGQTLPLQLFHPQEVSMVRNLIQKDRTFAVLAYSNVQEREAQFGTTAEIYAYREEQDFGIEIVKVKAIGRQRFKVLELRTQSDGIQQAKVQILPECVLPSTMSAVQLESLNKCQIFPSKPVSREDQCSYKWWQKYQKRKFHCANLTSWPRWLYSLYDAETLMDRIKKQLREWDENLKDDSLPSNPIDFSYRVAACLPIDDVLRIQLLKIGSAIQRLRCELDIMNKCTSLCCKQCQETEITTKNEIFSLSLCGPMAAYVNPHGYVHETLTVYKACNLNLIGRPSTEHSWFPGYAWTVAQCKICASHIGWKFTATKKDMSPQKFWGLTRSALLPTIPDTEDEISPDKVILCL
Sequence of CRBN/DDB1 (Q16531 whole entry partner): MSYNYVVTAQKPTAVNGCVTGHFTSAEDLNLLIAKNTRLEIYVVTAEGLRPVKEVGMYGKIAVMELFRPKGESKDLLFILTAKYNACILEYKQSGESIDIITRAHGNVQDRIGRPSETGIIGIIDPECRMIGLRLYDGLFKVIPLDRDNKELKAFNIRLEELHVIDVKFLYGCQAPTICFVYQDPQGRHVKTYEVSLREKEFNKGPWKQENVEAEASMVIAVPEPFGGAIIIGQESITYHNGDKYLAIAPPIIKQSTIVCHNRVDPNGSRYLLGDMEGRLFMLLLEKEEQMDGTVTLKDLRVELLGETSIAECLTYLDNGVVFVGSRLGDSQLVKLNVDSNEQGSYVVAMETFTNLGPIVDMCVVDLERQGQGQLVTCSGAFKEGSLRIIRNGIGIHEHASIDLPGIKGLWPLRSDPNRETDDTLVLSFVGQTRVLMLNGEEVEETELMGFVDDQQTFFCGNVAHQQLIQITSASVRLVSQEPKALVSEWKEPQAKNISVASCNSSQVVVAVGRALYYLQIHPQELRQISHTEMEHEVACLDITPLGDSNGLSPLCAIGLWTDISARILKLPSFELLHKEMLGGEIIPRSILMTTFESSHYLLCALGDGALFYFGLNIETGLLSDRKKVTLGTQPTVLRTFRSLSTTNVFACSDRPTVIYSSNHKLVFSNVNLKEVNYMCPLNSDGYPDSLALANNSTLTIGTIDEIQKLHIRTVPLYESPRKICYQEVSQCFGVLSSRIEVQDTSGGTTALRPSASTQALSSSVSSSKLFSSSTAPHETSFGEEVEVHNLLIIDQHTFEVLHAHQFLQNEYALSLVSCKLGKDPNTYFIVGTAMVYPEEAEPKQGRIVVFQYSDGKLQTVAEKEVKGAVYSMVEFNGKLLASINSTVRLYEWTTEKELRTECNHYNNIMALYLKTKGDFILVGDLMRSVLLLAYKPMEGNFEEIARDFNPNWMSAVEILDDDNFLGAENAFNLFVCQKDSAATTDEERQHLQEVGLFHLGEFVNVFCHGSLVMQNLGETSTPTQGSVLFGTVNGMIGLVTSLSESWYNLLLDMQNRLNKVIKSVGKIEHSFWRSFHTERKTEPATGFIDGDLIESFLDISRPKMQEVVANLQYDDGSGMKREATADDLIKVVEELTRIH

With `C[C@@H]1Cc2c([nH]c3ccccc23)[C@@H](c2cnc([C@H]3CC[C@H](C(=O)N4CCC(N5Cc6cc7c(cc6C5)C(=O)N(C5CCC(=O)NC5=O)C7)CC4)CC3)nc2)N1CC(F)F` (stereo partly drawn) [Compound A25, 3-(6-(1-((1R,4r)-4-(5-((1R,3R)-2-(2,2-difluoroethyl)-3-methyl-2,3,4,9-tetrahydro-1H-pyrido[3,4-b]indol-1-yl)pyrimidin-2-yl)cyclohexane-1-carbonyl)piperidin-4-yl)-1-oxo-3,5,6,7-tetrahydropyrrolo[3,4-f]isoindol-2(1H)-yl)piperidine-2,6-dione], the figures for the half-maximal degradation concentration (DC50) in test [1] and in test [2] were 10 to 100 nM and under 1 nM, respectively. Further, the Dmax was under 25% in test [1] and 25 to 50% in test [2] (T47D). Further, the IC50 in test [3] was under 50 nM.
For `COc1cc(N2CCC3(CCN(C(=O)CN4Cc5cc6c(cc5C4)C(=O)N(C4CCC(=O)NC4=O)C6=O)CC3)CC2)ccc1[C@@H]1c2[nH]c3ccccc3c2C[C@@H](C)N1CC(F)F` (stereo partly drawn) [Compound A27, 6-(2-(9-(4-((1R,3R)-2-(2,2-difluoroethyl)-3-methyl-2,3,4,9-tetrahydro-1H-pyrido[3,4-b]indol-1-yl)-3-methoxyphenyl)-3,9-diazaspiro[5.5]undecan-3-yl)-2-oxoethyl)-2-(2,6-dioxopiperidin-3-yl)-6,7-dihydropyrrolo[3,4-f]isoindole-1,3(2H,5H)-dione] the same measures were under 1 nM, under 1 nM, 50 to 75%, over 75% and 500 to 5000 nM.
The like results for `COc1cc(N2CCC(CN3CCN4c5cc(F)c(C(=O)N[C@H]6CCC(=O)NC6=O)cc5OC[C@@H]4C3)CC2)ccc1[C@@H]1c2[nH]c3ccccc3c2C[C@@H](C)N1CC(F)F` [Compound A30, (S)-3-((1-(4-((1R,3R)-2-(2,2-difluoroethyl)-3-methyl-2,3,4,9-tetrahydro-1H-pyrido[3,4-b]indol-1-yl)-3-methoxyphenyl)piperidin-4-yl)methyl)-N-((S)-2,6-dioxopiperidin-3-yl)-9-fluoro-1,2,3,4,4a,5-hexahydrobenzo[b]pyrazino[1,2-d][1,4]oxazine-8-carboxamide] were, in that order, 1 to 10 nM, 1 to 10 nM, 25 to 50%, 50 to 75% and 500 to 5000 nM.
The like results for `COc1cc(N2CCC(CN3CCN(c4ccc(NC5CCC(=O)NC5=O)cc4F)CC3)CC2)ccc1[C@@H]1c2[nH]c3ccccc3c2C[C@@H](C)N1CC(F)F` (stereo partly drawn) [Compound A31, 3-((4-(4-((1-(4-((1R,3R)-2-(2,2-difluoroethyl)-3-methyl-2,3,4,9-tetrahydro-1H-pyrido[3,4-b]indol-1-yl)-3-methoxyphenyl)piperidin-4-yl)methyl)piperazin-1-yl)-3-fluorophenyl)amino)piperidine-2,6-dione] were, in that order, under 1 nM, 1 to 10 nM, 25 to 50%, 25 to 50% and under 50 nM.
Turning to `C[C@@H]1Cc2c([nH]c3ccccc23)[C@@H](c2cnc(N3CCC4(CC3)CC(CN3CCC(c5ccc6c(c5)n(C)c(=O)n6C5CCC(=O)NC5=O)CC3)C4)nc2)N1CC(F)F` (stereo partly drawn) [Compound A32, 3-(5-(1-((7-(5-((1R,3R)-2-(2,2-difluoroethyl)-3-methyl-2,3,4,9-tetrahydro-1H-pyrido[3,4-b]indol-1-yl)pyrimidin-2-yl)-7-azaspiro[3.5]nonan-2-yl)methyl)piperidin-4-yl)-3-methyl-2-oxo-2,3-dihydro-1H-benzo[d]imidazol-1-yl)piperidine-2,6-dione], the DC50 in test [1] and in test [2] was under 1 nM each time. Further, the greatest degradation seen (Dmax) in test [1] was 25 to 50%; in test [2] (T47D), 50 to 75%. In test [3], the concentration for half-maximal inhibition (IC50) fell in the range of 50 to 500 nM.
As to `COc1cc(N2CCC(CN3CCC4(CC3)COc3cc5c(cc34)CN(C3CCC(=O)NC3=O)C5=O)CC2)ccc1[C@@H]1c2[nH]c3ccccc3c2C[C@@H](C)N1CC(F)F` (stereo partly drawn) [Compound A33, 3-(1′-((1-(4-((1R,3R)-2-(2,2-difluoroethyl)-3-methyl-2,3,4,9-tetrahydro-1H-pyrido[3,4-b]indol-1-yl)-3-methoxyphenyl)piperidin-4-yl)methyl)-7-oxo-5,7-dihydro-2H,6H-spiro[furo[2,3-f]isoindole-3,4′-piperidin]-6-yl) piperidine-2,6-dione], the values for the 50% degradation concentration (DC50) in test [1] and in test [2] were 1 to 10 nM and under 1 nM, respectively. The Dmax in test [1] was under 25%; in test [2], 50 to 75%. Moreover, the IC50 in test [3] was 50 to 500 nM.
In the case of `COc1cc(N2CCC(CN3CCC(c4ccc(N[C@H]5CCC(=O)NC5=O)cc4F)CC3)CC2)ccc1[C@@H]1c2[nH]c3ccccc3c2C[C@@H](C)N1CC(F)F` [Compound A34, (S)-3-((4-(1-((1-(4-((1R,3R)-2-(2,2-difluoroethyl)-3-methyl-2,3,4,9-tetrahydro-1H-pyrido[3,4-b]indol-1-yl)-3-methoxyphenyl)piperidin-4-yl)methyl)piperidin-4-yl)-3-fluorophenyl)amino)piperidine-2,6-dione], the figures for the DC50 in test [1] and in test [2] were over 100 nM and under 1 nM, respectively. Also, the results for the greatest degradation seen (Dmax) in test [1] and in test [2] (T47D) were under 25% and 25 to 50%, respectively. Moreover, the 50% inhibitory concentration (IC50) in test [3] is under 50 nM.
Consider `COc1cc(N2CCC(CN3CCC(c4ccc5c(c4)n(C)c(=O)n5C4CCC(=O)NC4=O)CC3)CC2)ccc1[C@@H]1c2[nH]c3ccccc3c2C[C@@H](C)N1CC(F)F` (stereo partly drawn) [Compound A35, 3-(5-(1-((1-(4-((1R,3R)-2-(2,2-difluoroethyl)-3-methyl-2,3,4,9-tetrahydro-1H-pyrido[3,4-b]indol-1-yl)-3-methoxyphenyl)piperidin-4-yl)methyl)piperidin-4-yl)-3-methyl-2-oxo-2,3-dihydro-1H-benzo[d]imidazol-1-yl)piperidine-2,6-dione], for which the half-maximal degradation concentration (DC50) in test [1] is 10 to 100 nM; in test [2], under 1 nM. In addition, the Dmax in test [1] fell in the range of 25 to 50%; in test [2] (T47D), 50 to 75%. Also, the IC50 in test [3] is 50 to 500 nM.
On to `COc1cc(N2CCC(CN3CCN4c5ccc6c(c5OC[C@H]4C3)CN([C@H]3CCC(=O)NC3=O)C6=O)CC2)ccc1[C@H]1c2[nH]c3ccccc3c2C[C@@H](C)N1CC(F)F` [Compound A39, (S)-3-((R)-7-((1-(4-((1S,3R)-2-(2,2-difluoroethyl)-3-methyl-2,3,4,9-tetrahydro-1H-pyrido[3,4-b]indol-1-yl)-3-methoxyphenyl)piperidin-4-yl)methyl)-1-oxo-1,3,5,5a,6,7,8,9-octahydro-2H-pyrazino[1′,2′:4,5][1,4]oxazino[2,3-e]isoindol-2-yl)piperidine-2,6-dione], for which the half-maximal degradation concentration (DC50) in test [1] and in test [2] was under 1 nM each time. The maximal degradation (Dmax) in test [1] and in test [2] (T47D) was 50 to 75% in each case. The IC50 in test [3] is 50 to 500 nM.
As to `COc1cc(N2CCC(CN3CCN4c5ccc6c(c5OC[C@@H]4C3)CN([C@@H]3CCC(=O)NC3=O)C6=O)CC2)ccc1[C@@H]1c2[nH]c3ccccc3c2C[C@@H](C)N1CC(F)F` [Compound A42, (R)-3-((S)-7-((1-(4-((1R,3R)-2-(2,2-difluoroethyl)-3-methyl-2,3,4,9-tetrahydro-1H-pyrido[3,4-b]indol-1-yl)-3-methoxyphenyl)piperidin-4-yl)methyl)-1-oxo-1,3,5,5a,6,7,8,9-octahydro-2H-pyrazino[1′,2′:4,5][1,4]oxazino[2,3-e]isoindol-2-yl)piperidine-2,6-dione], the DC50 in test [1] and in test [2] was under 1 nM in each case. Moreover, the greatest degradation seen (Dmax) in test [1] and in test [2] (T47D) was 50 to 75% each time. In addition, in test [3], the IC50 fell in the range of 500 to 5000 nM.
As to `COc1cc(N2CCC(CN3CCN(c4ccc(C(=O)N[C@H]5CCC(=O)NC5=O)nc4)CC3)CC2)ccc1[C@@H]1c2[nH]c3ccccc3c2C[C@@H](C)N1CC(F)F` [Compound A43, 5-(4-((1-(4-((1R,3R)-2-(2,2-difluoroethyl)-3-methyl-2,3,4,9-tetrahydro-1H-pyrido[3,4-b]indol-1-yl)-3-methoxyphenyl)piperidin-4-yl)methyl)piperazin-1-yl)-N—((S)-2,6-dioxopiperidin-3-yl)picolinamide formate], the DC50 in test [1] and in test [2] was under 1 nM in each case. For the same compound, the maximal degradation (Dmax) in test [1] and in test [2] (T47D) was 50 to 75% in each case. In test [3], the IC50 lay in the range of 500 to 5000 nM.
